In ChEMBL document CHEMBL1135290, “Synthesis of sub-micromolar inhibitors of MraY by exploring the region originally occupied by the diazepanone ring in the liposidomycin structure” (Bioorg Med Chem Lett, 2002) one finds MIC and IC50 data, which are given here for 37 compounds.

The subject of one test is Enterococcus faecium. As to the kind of experiment: Tested in vitro for antibacterial activity against Enterococcus faecium using micro-broth dilution method. In kind it is functional. In general terms: In broth dilution the organism is exposed to a series of concentrations in liquid medium.
The next test concerns Staphylococcus aureus. The test can be described thus: Tested in vitro for antibacterial activity against Staphylococcus aureus using micro-broth dilution method. In kind it is functional.
The next test deals with Streptococcus pyogenes. The test can be described thus: Tested in vitro for antibacterial activity against Streptococcus pyogenes using micro-broth dilution method. Format: functional.
Test [1] in a line: Inhibitory activity against Translocase I.
The next test has as its system Escherichia coli. The test can be described thus: Tested in vitro for antibacterial activity against Escherichia coli using micro-broth dilution method. Format: functional.

As usually defined, the MIC is the smallest concentration in the dilution series that meets the test's criterion for growth inhibition. Read a low MIC as greater potency. The term IC50 denotes the concentration that gives 50% inhibition.

As to `CCCCCCCCCCCCCCNC[C@H](O[C@@H]1O[C@H](CN)[C@@H](O)[C@H]1O)[C@@H]1C[C@@H](O)[C@H](n2ccc(=O)[nH]c2=O)O1.O=C(O)C(F)(F)F`, the MIC was 10 µg/mL against Enterococcus faecium, 2.5 µg/mL with Staphylococcus aureus, 2.5 µg/mL against Streptococcus pyogenes and 2.5 µg/mL in the test with Escherichia coli. Moreover, the IC50 in test [1] amounted to 590 nM.

Consider `CC(C)(C)c1ccc(CNC[C@H](O[C@@H]2O[C@H](CN)[C@@H](O)[C@H]2O)[C@@H]2C[C@@H](O)[C@H](n3ccc(=O)[nH]c3=O)O2)cc1`, for which 580 nM corresponded to half-maximal inhibition in test [1] (IC50).

In test [1], `NC[C@H]1O[C@@H](O[C@@H](CNc2ccc(Oc3ccccc3)cc2)[C@@H]2C[C@@H](O)[C@H](n3ccc(=O)[nH]c3=O)O2)[C@H](O)[C@@H]1O` yielded an IC50 of 200 nM.

In test [1], `NC[C@H]1O[C@@H](O[C@@H](CNCCCn2ccnc2)[C@@H]2C[C@@H](O)[C@H](n3ccc(=O)[nH]c3=O)O2)[C@H](O)[C@@H]1O` registered an IC50 of 3800 nM. This IC50 lies about 19-fold higher than the previous one.

`NC[C@H]1O[C@@H](O[C@@H](CNC(=O)c2ccc(Br)cc2)[C@@H]2C[C@@H](O)[C@H](n3ccc(=O)[nH]c3=O)O2)[C@H](O)[C@@H]1O` gave an IC50 in test [1] of 440 nM.

On to `CCCCCCCCCCNC[C@H](O[C@@H]1O[C@H](CN)[C@@H](O)[C@H]1O)[C@@H]1C[C@@H](O)[C@H](n2ccc(=O)[nH]c2=O)O1.O=C(O)C(F)(F)F`, for which the MIC was determined as 80 µg/mL against Enterococcus faecium, 40 µg/mL in the test with Staphylococcus aureus, 20 µg/mL in the test with Streptococcus pyogenes and 40 µg/mL in the test on Escherichia coli. In test [1], this compound yielded an IC50 of 330 nM.

In the case of `CCCCCCCCCCCCNC[C@H](O[C@@H]1O[C@H](CN)[C@@H](O)[C@H]1O)[C@@H]1C[C@@H](O)[C@H](n2ccc(=O)[nH]c2=O)O1.O=C(O)C(F)(F)F`, the MIC against Enterococcus faecium was determined as 20 µg/mL; with Staphylococcus aureus, 5 µg/mL; against Streptococcus pyogenes it was 2.5 µg/mL; in the test with Escherichia coli, 2.5 µg/mL. Besides, in test [1], the IC50 came to 700 nM.

Regarding `COc1ccc(CNC[C@H](O[C@@H]2O[C@H](CN)[C@@H](O)[C@H]2O)[C@@H]2C[C@@H](O)[C@H](n3ccc(=O)[nH]c3=O)O2)cc1OC`, the IC50 in test [1] was found to be 4000 nM.

With `NC[C@H]1O[C@@H](O[C@@H](CNCCc2ccc(Oc3ccccc3)cc2)[C@@H]2C[C@@H](O)[C@H](n3ccc(=O)[nH]c3=O)O2)[C@H](O)[C@@H]1O`, the IC50 in test [1] is 310 nM. This IC50 is about 13-fold lower than that of the compound before.

On to `CN1CCCC1CCNC[C@H](O[C@@H]1O[C@H](CN)[C@@H](O)[C@H]1O)[C@@H]1C[C@@H](O)[C@H](n2ccc(=O)[nH]c2=O)O1` (some centres not stated), for which half-maximal inhibition in test [1] (IC50) was put at 3900 nM.

In test [1], `CN(Cc1ccc(-c2ccccc2)cc1)C[C@H](O[C@@H]1O[C@H](CN)[C@@H](O)[C@H]1O)[C@@H]1C[C@@H](O)[C@H](n2ccc(=O)[nH]c2=O)O1` came in with a concentration for half-maximal inhibition (IC50) of 170 nM. This IC50 is about 23-fold lower than that of the compound before.

In turn, `NC[C@H]1O[C@@H](O[C@@H](CNC(=O)c2cccc(Oc3ccccc3)c2)[C@@H]2C[C@@H](O)[C@H](n3ccc(=O)[nH]c3=O)O2)[C@H](O)[C@@H]1O` displayed an IC50 in test [1] of 440 nM.

In test [1], `NC[C@H]1O[C@@H](O[C@@H](CNCc2ccc(C(=O)O)cc2)[C@@H]2C[C@@H](O)[C@H](n3ccc(=O)[nH]c3=O)O2)[C@H](O)[C@@H]1O` gave an IC50 of 6500 nM.

For the compound `NC[C@H]1O[C@@H](O[C@@H](CNCC2COc3ccccc3O2)[C@@H]2C[C@@H](O)[C@H](n3ccc(=O)[nH]c3=O)O2)[C@H](O)[C@@H]1O` (some centres not stated), inhibition in test [1] was half-maximal at 2800 nM (IC50).

The compound `NC[C@H]1O[C@@H](O[C@@H](CNC(=O)c2cccc(OC(F)(F)F)c2)[C@@H]2C[C@@H](O)[C@H](n3ccc(=O)[nH]c3=O)O2)[C@H](O)[C@@H]1O` came in with an IC50 in test [1] of 1000 nM.

Consider `NC[C@H]1O[C@@H](O[C@@H](CNC(=O)c2ccc(-c3ccccc3)cc2)[C@@H]2C[C@@H](O)[C@H](n3ccc(=O)[nH]c3=O)O2)[C@H](O)[C@@H]1O`, for which the IC50 in test [1] turned out to be 250 nM. This IC50 is about 4-fold lower than that of the compound before.

Turning to `CCCCCCCCNC[C@H](O[C@@H]1O[C@H](CN)[C@@H](O)[C@H]1O)[C@@H]1C[C@@H](O)[C@H](n2ccc(=O)[nH]c2=O)O1.O=C(O)C(F)(F)F`, the MIC is 80 µg/mL against Enterococcus faecium, above 80 µg/mL in the test with Staphylococcus aureus, above 80 µg/mL with Streptococcus pyogenes and above 80 µg/mL in the test with Escherichia coli. For the same compound, the IC50 in test [1] was 820 nM.

In test [1], `COC(=O)C1CCN(C[C@H](O[C@@H]2O[C@H](CN)[C@@H](O)[C@H]2O)[C@@H]2C[C@@H](O)[C@H](n3ccc(=O)[nH]c3=O)O2)CC1` yielded an IC50 of 4400 nM.

The compound `NC[C@H]1O[C@@H](O[C@@H](CNCc2ccc(SC(F)(F)F)cc2)[C@@H]2C[C@@H](O)[C@H](n3ccc(=O)[nH]c3=O)O2)[C@H](O)[C@@H]1O` gave a half-maximal inhibitory concentration (IC50) in test [1] of 310 nM.

`NC[C@H]1O[C@@H](O[C@@H](CNCC2CCCO2)[C@@H]2C[C@@H](O)[C@H](n3ccc(=O)[nH]c3=O)O2)[C@H](O)[C@@H]1O` (some centres not stated) registered an IC50 in test [1] of 9200 nM. This IC50 is about 30-fold higher than that of the compound before.

Regarding `CCCCCNC[C@H](O[C@@H]1O[C@H](CN)[C@@H](O)[C@H]1O)[C@@H]1C[C@@H](O)[C@H](n2ccc(=O)[nH]c2=O)O1.O=C(O)C(F)(F)F`, the MIC in the test on Enterococcus faecium, against Staphylococcus aureus, against Streptococcus pyogenes and against Escherichia coli was above 80 µg/mL throughout. This compound returned an IC50 in test [1] of 900 nM.

On to `NC[C@H]1O[C@@H](O[C@@H](CNCCCN2CCOCC2)[C@@H]2C[C@@H](O)[C@H](n3ccc(=O)[nH]c3=O)O2)[C@H](O)[C@@H]1O`, for which half-maximal inhibition in test [1] (IC50) was put at 3800 nM.

In test [1], `NC[C@H]1O[C@@H](O[C@@H](CNC(=O)c2ccc(Oc3ccccc3)cc2)[C@@H]2C[C@@H](O)[C@H](n3ccc(=O)[nH]c3=O)O2)[C@H](O)[C@@H]1O` gave an IC50 of 200 nM. Compared with the last compound, the IC50 is about 19-fold lower.

In test [1], `COc1ccc(CN(C)C[C@H](O[C@@H]2O[C@H](CN)[C@@H](O)[C@H]2O)[C@@H]2C[C@@H](O)[C@H](n3ccc(=O)[nH]c3=O)O2)cc1` yielded an IC50 of 1400 nM.

With `NC[C@H]1O[C@@H](O[C@@H](CN2CCC(Cc3ccccc3)CC2)[C@@H]2C[C@@H](O)[C@H](n3ccc(=O)[nH]c3=O)O2)[C@H](O)[C@@H]1O`, in test [1], the IC50 was found to be 350 nM.

Take `NC[C@H]1O[C@@H](O[C@@H](CNCCc2cccc(C(F)(F)F)c2)[C@@H]2C[C@@H](O)[C@H](n3ccc(=O)[nH]c3=O)O2)[C@H](O)[C@@H]1O`: the IC50 in test [1] is 220 nM.

For `NC[C@H]1O[C@@H](O[C@@H](CNC(=O)c2ccc(OCc3ccccc3)cc2)[C@@H]2C[C@@H](O)[C@H](n3ccc(=O)[nH]c3=O)O2)[C@H](O)[C@@H]1O`, in test [1], the IC50 stood at 320 nM. The IC50 values of the last two compounds are within 1.5-fold of each other.

With `CC(C)c1ccc(C(=O)NC[C@H](O[C@@H]2O[C@H](CN)[C@@H](O)[C@H]2O)[C@@H]2C[C@@H](O)[C@H](n3ccc(=O)[nH]c3=O)O2)cc1`, in test [1], the IC50 amounted to 400 nM.

With `NC[C@H]1O[C@@H](O[C@@H](CNCCc2ccc(Cl)cc2)[C@@H]2C[C@@H](O)[C@H](n3ccc(=O)[nH]c3=O)O2)[C@H](O)[C@@H]1O`, 170 nM corresponded to half-maximal inhibition in test [1] (IC50).

`NC[C@H]1O[C@@H](O[C@@H](CNCCc2c[nH]c3ccccc23)[C@@H]2C[C@@H](O)[C@H](n3ccc(=O)[nH]c3=O)O2)[C@H](O)[C@@H]1O`: the IC50 in test [1] came out at 2900 nM.

Regarding `NC[C@H]1O[C@@H](O[C@@H](CO)[C@H]2O[C@@H](n3ccc(=O)[nH]c3=O)[C@H](O)[C@@H]2O)[C@H](O)[C@@H]1O`, the IC50 in test [1] was found to be 5000 nM.

With `NC[C@H]1O[C@@H](O[C@@H](CNC(=O)Cc2ccc(-c3ccccc3)cc2)[C@@H]2C[C@@H](O)[C@H](n3ccc(=O)[nH]c3=O)O2)[C@H](O)[C@@H]1O`, in test [1], the IC50 was 430 nM.

As to `NC[C@H]1O[C@@H](O[C@@H](CNCCCN2CCCC2=O)[C@@H]2C[C@@H](O)[C@H](n3ccc(=O)[nH]c3=O)O2)[C@H](O)[C@@H]1O`, in test [1], the IC50 turned out to be 7000 nM.

For the compound `NC[C@H]1O[C@@H](O[C@@H](CNC(=O)Nc2ccc(Oc3ccccc3)cc2)[C@@H]2C[C@@H](O)[C@H](n3ccc(=O)[nH]c3=O)O2)[C@H](O)[C@@H]1O`, the IC50 in test [1] stood at 140 nM.

The compound `Cc1ccc(CCNC[C@H](O[C@@H]2O[C@H](CN)[C@@H](O)[C@H]2O)[C@@H]2C[C@@H](O)[C@H](n3ccc(=O)[nH]c3=O)O2)cc1` showed an IC50 in test [1] of 610 nM.

As for `NC[C@H]1O[C@@H](O[C@@H](CNCCc2ccncc2)[C@@H]2C[C@@H](O)[C@H](n3ccc(=O)[nH]c3=O)O2)[C@H](O)[C@@H]1O`, in test [1], the IC50 is 4600 nM.

Turning to `NC[C@H]1O[C@@H](O[C@@H](CNCCc2ccccc2)[C@@H]2C[C@@H](O)[C@H](n3ccc(=O)[nH]c3=O)O2)[C@H](O)[C@@H]1O`, the IC50 in test [1] worked out at 1600 nM.
